Source: patent US7875618B2, “Substituted imidazo[1,5-a]quinoxalines useful as inhibitors of phosphodiesterase 10 for the treatment of neurological and other disorders” (Wyeth, priority 2007, dated 2011)

Target: T1, human recombinant PDE10A (Homo sapiens, UniProt Q9Y233)
T1 construct: made in house; host or cells: SF21 insect cells (baculovirus)
Test: Inhibition of human recombinant PDE10A ([3H]-cAMP SPA, Method B)
Type: biochemical
Details: read-out: PDE10 inhibition IC50 [nM] PDE10A human
Method: The gene was than inserted into a baculovirus vector, ligated with the baculovirus DNA. The enzyme-protein was expressed in SF21-cells. The enzyme was isolated from these cells by harvesting the cells by a centrifugation at 200 g to collect the cells. The cells were resuspended in 50 mM Tris-HCl/5 mM MgCl2 buffer (pH=7.4) and lysed by a sonication of the cells. The cytosolic PDE10A was obtained by a centrifugation at 48000 g for 1 h in the supernatant and stored at −70° C. PDE10 activity was determined in a one step procedure in microtiterplates. […] Nonspecific activity was tested without the enzyme. The reaction was initiated by addition of the substrate solution and was carried out at 37° C. for 30 minutes. Enzymatic activity was stopped by addition of 25 μl YSi-SPA-beads (Amersham-Pharmacia). One hour later the mixture was measured in a liquid scintillation counter for microtiterplates (Microbeta Trilux). To pipette the incubation mixture a robot Biomek (Fa. Beckman) is used. […] For determination of IC50 values the Hill-plot, 2-parameter-model, was used.

T1 sequence (Q9Y233 1-779 isoform Q9Y233-1): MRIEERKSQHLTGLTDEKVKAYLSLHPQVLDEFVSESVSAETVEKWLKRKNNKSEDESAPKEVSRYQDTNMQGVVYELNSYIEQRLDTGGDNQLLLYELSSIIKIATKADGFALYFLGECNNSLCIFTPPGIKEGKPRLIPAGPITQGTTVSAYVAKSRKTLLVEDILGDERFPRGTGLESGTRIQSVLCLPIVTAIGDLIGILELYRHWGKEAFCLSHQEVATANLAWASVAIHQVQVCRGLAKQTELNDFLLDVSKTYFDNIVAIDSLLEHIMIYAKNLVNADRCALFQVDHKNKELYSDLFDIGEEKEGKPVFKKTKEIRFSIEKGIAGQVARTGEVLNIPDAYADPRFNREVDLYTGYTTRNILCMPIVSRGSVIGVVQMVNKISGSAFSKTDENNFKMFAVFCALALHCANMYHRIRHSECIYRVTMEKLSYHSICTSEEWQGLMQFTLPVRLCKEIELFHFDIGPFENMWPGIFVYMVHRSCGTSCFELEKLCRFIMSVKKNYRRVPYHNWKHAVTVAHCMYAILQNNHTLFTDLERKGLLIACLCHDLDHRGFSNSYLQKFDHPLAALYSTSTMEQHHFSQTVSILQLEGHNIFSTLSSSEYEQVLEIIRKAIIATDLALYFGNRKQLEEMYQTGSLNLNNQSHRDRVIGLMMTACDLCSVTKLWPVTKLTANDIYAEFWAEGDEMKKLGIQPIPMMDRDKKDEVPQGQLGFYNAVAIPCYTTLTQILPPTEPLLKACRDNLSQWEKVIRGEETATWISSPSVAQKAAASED

SMILES | IC50 [nM]
Cc1nc(F)ccc1-c1nc(C)c2c(C)nc3ccc(F)cc3n12 [Example 139, 8-fluoro-1-(6-fluoro-2-methylpyridin-3-yl)-3,4-dimethylimidazo[1,5-a]quinoxaline] | ≥ 100
Cc1nc(-c2cccc(C(N)=O)c2)n2c1c(C)nc1ccccc12 [Example 101, 3-(3,4-dimethylimidazo[1,5-a]quinoxalin-1-yl)benzamide] | 10 to 100
Cc1nc(-c2ccc(F)c(C(N)=O)c2)n2c1c(C)nc1ccc(F)cc12 [Example 135, 2-fluoro-5-(8-fluoro-3,4-dimethylimidazo[1,5-a]quinoxalin-1-yl)benzamide] | 10 to 100
Cc1nc(F)ccc1-c1nc(C)c2c(C)nc3ccc(Cl)cc3n12 [Example 62, 8-chloro-1-(6-fluoro-2-methylpyridin-3-yl)-3,4-dimethylimidazo[1,5-a]quinoxaline] | 10 to 100
COc1ccncc1-c1nc(C)c2c(C)nc3ccc(C(F)(F)F)cc3n12 [Example 123, 1-(4-methoxypyridin-3-yl)-3,4-dimethyl-8-(trifluoromethyl)imidazo[1,5-a]quinoxaline] | 10 to 100
Cc1nc(-c2ccncc2)n2c1c(C)nc1ccc(F)cc12 [Example 143, 8-fluoro-3,4-dimethyl-1-pyridin-4-ylimidazo[1,5-a]quinoxaline] | ≥ 100
Cc1nc(-c2cccnc2)n2c1c(C)nc1ccc(F)cc12 [Example 144, 8-fluoro-3,4-dimethyl-1-pyridin-3-ylimidazo[1,5-a]quinoxaline] | ≥ 100
COc1ccc2nc(C)c3c(C)nc(-c4ccc(F)cc4C)n3c2c1 [Example 108, 1-(4-fluoro-2-methylphenyl)-8-methoxy-3,4-dimethylimidazo[1,5-a]quinoxaline] | 10 to 100
Cc1nc(F)ccc1-c1nc(C)c2c(C)nc3ccc(OC(F)(F)F)cc3n12 [Example 117, 1-(6-fluoro-2-methylpyridin-3-yl)-3,4-dimethyl-8-(trifluoromethoxy)imidazo[1,5-a]quinoxaline] | 10 to 100
Cc1nc(-c2ccc(F)c(C(N)=O)c2)n2c1c(C)nc1ccc(Cl)cc12 [Example 68, 5-(8-chloro-3,4-dimethylimidazo[1,5-a]quinoxalin-1-yl)-2-fluorobenzamide] | 10 to 100
CCOc1cc2nc(C)c3c(C)nc(-c4ccccc4C)n3c2cc1Cl [Example 132, 8-Chloro-7-ethoxy-3,4-dimethyl-1-(2-methylphenyl)imidazo[1,5-a]quinoxaline] | 10 to 100
COc1ccc2nc(C)c3c(C)nc(-c4cnccc4OC)n3c2c1 [Example 110, 8-methoxy-1-(4-methoxypyridin-3-yl)-3,4-dimethylimidazo[1,5-a]quinoxaline] | 10 to 100
COc1ccc2nc(C)c3c(C)nc(-c4ccc(Cl)cc4C(F)(F)F)n3c2c1 [Example 106, 1-[4-chloro-2-(trifluoromethyl)phenyl]-8-methoxy-3,4-dimethylimidazo[1,5-a]quinoxaline] | 10 to 100
Cc1nc(F)ccc1-c1nc(C)c2c(C)nc3ccccc3n12 [Example 103, 1-(6-fluoro-2-methylpyridin-3-yl)-3,4-dimethylimidazo[1,5-a]quinoxaline] | 10 to 100

Next, values leading:

IC50 [nM] | SMILES
≤ 10 | Cc1ccccc1-c1nc(C)c2c(C)nc3ccc(Cl)cc3n12 [Example 63, 8-chloro-3,4-dimethyl-1-(2-methylphenyl)imidazo[1,5-a]quinoxaline]
≤ 10 | COc1cc(F)cc2c1nc(C)c1c(C)nc(-c3ccccc3Cl)n12 [Example 85, 1-(2-chlorophenyl)-8-fluoro-6-methoxy-3,4-dimethylimidazo[1,5-a]quinoxaline]
≤ 10 | COc1cc(F)c2nc(C)c3c(C)nc(-c4ccc(F)cc4Cl)n3c2c1 [Example 33, 1-(2-Chloro-4-fluorophenyl)-6-fluoro-8-methoxy-3,4-dimethylimidazo[1,5-a]quinoxaline]
10 to 100 | Cc1nc(-c2cc(C(N)=O)ccc2F)n2c1c(C)nc1ccc(F)cc12 [Example 137, 4-fluoro-3-(8-fluoro-3,4-dimethylimidazo[1,5-a]quinoxalin-1-yl)benzamide]
≤ 10 | COc1cc2nc(C)c3c(C)nc(-c4c(C)nn(C)c4C)n3c2cc1Cl [Example 131, 8-chloro-7-methoxy-3,4-dimethyl-1-(1,3,5-trimethyl-1H-pyrazol-4-yl)imidazo[1,5-a]quinoxaline]
10 to 100 | CCCc1nc(C)c2c(Cl)nc3ccc(OC)cc3n12 [Intermediate B1, 4-chloro-8-methoxy-3-methyl-1-propyl-imidazo[1,5-a]quinazoline]
≤ 10 | COc1ccc2nc(C)c3c(C)nc(-c4cccc(C(N)=O)c4)n3c2c1 [Example 112, 3-(8-methoxy-3,4-dimethylimidazo[1,5-a]quinoxalin-1-yl)benzamide]
≤ 10 | Cc1nc(-c2cccc(C(N)=O)c2)n2c1c(C)nc1ccc(Cl)cc12 [Example 64, 3-(8-chloro-3,4-dimethylimidazo[1,5-a]quinoxalin-1-yl)benzamide]
≤ 10 | COc1ccc2nc(C)c3c(C)nc(-c4cccc(F)c4C)n3c2c1 [Example 109, 1-(3-fluoro-2-methylphenyl)-8-methoxy-3,4-dimethylimidazo[1,5-a]quinoxaline]
≤ 10 | COc1cc2nc(C)c3c(C)nc(-c4ccccc4C)n3c2cc1Cl [Example 126, 8-chloro-7-methoxy-3,4-dimethyl-1-(2-methylphenyl)imidazo[1,5-a]quinoxaline]
≤ 10 | COc1ccc2nc(C)c3c(C)nc(-c4ccc(F)cc4Cl)n3c2c1 [Example 105, 1-(2-chloro-4-fluorophenyl)-8-methoxy-3,4-dimethylimidazo[1,5-a]quinoxaline]
≤ 10 | COc1ccc2nc(C)c3c(C)nc(-c4ccccc4C)n3c2c1 [Example 115, 8-methoxy-3,4-dimethyl-1-(2-methylphenyl)imidazo[1,5-a]quinoxaline]
≤ 10 | Cc1nc(-c2ccccc2Cl)n2c1c(C)nc1ccc(Cl)cc12 [Example 67, 8-chloro-1-(2-chlorophenyl)-3,4-dimethylimidazo[1,5-a]quinoxaline]
≤ 10 | COc1cc2nc(C)c3c(C)nc(-c4cccnc4C)n3c2cc1Cl [Example 130, 8-chloro-7-methoxy-3,4-dimethyl-1-(2-methylpyridin-3-yl)imidazo[1,5-a]quinoxaline]
≤ 10 | COc1cc(F)c2nc(C)c3c(C)nc(-c4ccccc4Cl)n3c2c1 [Example 77, 1-(2-chlorophenyl)-6-fluoro-8-methoxy-3,4-dimethylimidazo[1,5-a]quinoxaline]
≤ 10 | COc1ccncc1-c1nc(C)c2c(C)nc3c(OC)cc(F)cc3n12 [Example 80, 8-fluoro-6-methoxy-1-(4-methoxypyridin-3-yl)-3,4-dimethylimidazo[1,5-a]quinoxaline]
≤ 10 | COc1cc(F)c2nc(C)c3c(C)nc(-c4cccc(F)c4C)n3c2c1 [Example 32, 6-Fluoro-1-(3-fluoro-2-methylphenyl)-8-methoxy-3,4-dimethylimidazo[1,5-a]quinoxaline]
≤ 10 | COc1cc(F)c2nc(C)c3c(C)nc(-c4ccc(F)c(C(N)=O)c4)n3c2c1 [Example 78, 2-fluoro-5-(6-fluoro-8-methoxy-3,4-dimethylimidazo[1,5-a]quinoxalin-1-yl)benzamide]
≤ 10 | COc1cc2nc(C)c3c(C)nc(-c4ccncc4C)n3c2cc1Cl [Example 127, 8-chloro-7-methoxy-3,4-dimethyl-1-(3-methylpyridin-4-yl)imidazo[1,5-a]quinoxaline]
≤ 10 | COc1cccc2c1nc(C)c1c(C)nc(-c3ccccc3C)n12 [Example 133, 6-Methoxy-3,4-dimethyl-1-(2-methylphenyl)imidazo[1,5-a]quinoxaline]
